Experimental data taken from ChEMBL document CHEMBL5543126, “Combinatorial Ubiquitination REal-time PROteolysis (CURE-PROs): A Modular Platform for Generating Reversible, Self-Assembling Bifunctional Targeted Degraders” (J Med Chem, 2024).
The source made the active and inactive calls. No cut-off for these calls is given here.

Columns and labels:
[1] = target: T1, von Hippel-Lindau disease tumor suppressor/Bromodomain-containing protein 4 (Homo sapiens, UniProt O60885+P40337); experiment: (§1) PROTAC activity at BRD4/VHL in human MCF7 cells assessed as induction of BRD4 degradation by measuring residual activity at 10 uM incubated for 24 hrs in presence of 3 uM BRD4 based ligand ((4S)-6-(4-chlorophenyl)-4-(2-(ethylamino)-2-oxoethyl)-1-methyl4Hbenzo[f][1,2,4]triazolo [4,3-a][1,4]diazepin-8-yl)boronic acid by Western blot based Combinatorial Ubiquitination Real-time PROteolysis analysis; type: cell-based
T1 sequence (P40337 whole entry, looked up, other chains not shown): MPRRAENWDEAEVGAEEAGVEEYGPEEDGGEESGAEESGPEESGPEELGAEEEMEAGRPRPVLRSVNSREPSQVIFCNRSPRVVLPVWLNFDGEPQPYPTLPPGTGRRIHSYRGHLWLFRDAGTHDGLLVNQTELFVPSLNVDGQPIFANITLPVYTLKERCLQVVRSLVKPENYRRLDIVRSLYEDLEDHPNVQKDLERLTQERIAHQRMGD

[2] = target: T1, von Hippel-Lindau disease tumor suppressor/Bromodomain-containing protein 4; experiment: as §1, with “1” for “10”, “300 nM” for “3 uM”; type: cell-based
[3] = target: T1, von Hippel-Lindau disease tumor suppressor/Bromodomain-containing protein 4; experiment: as §1, with “100 nM” for “10 uM”; type: cell-based
[4] = target: T1, von Hippel-Lindau disease tumor suppressor/Bromodomain-containing protein 4; experiment: as §1, with “30 nM” for “10 uM”, “100 nM” for “3 uM”; type: cell-based
[5] = target: T1, von Hippel-Lindau disease tumor suppressor/Bromodomain-containing protein 4; experiment: PROTAC activity at VHL/BRD4 in HEK293 cells assessed as induction of BRD4 degradation by measuring Tmax at 1 uM measured every 15 mins for 24 hrs in presence of BRD4 based ligand ((4S)-6-(4-chlorophenyl)-4-(2-(ethylamino)-2-oxoethyl)-1-methyl4Hbenzo[f][1,2,4]triazolo [4,3-a][1,4]diazepin-8-yl)boronic acid by HiBiT based Combinatorial Ubiquitination Real-time PROteolysis analysis; type: cell-based
[6] = target: T1, von Hippel-Lindau disease tumor suppressor/Bromodomain-containing protein 4; experiment: as §1, with “VHL/BRD4” for “BRD4/VHL”, “degradation” for “degradation by measuring residual activity”, “measured at 4” for “incubated for 24”, “of” for “of 3 uM”; type: cell-based
[7] = target: T1, von Hippel-Lindau disease tumor suppressor/Bromodomain-containing protein 4; experiment: as §1, with “of 1” for “of 3”; type: cell-based
[8] = target: T1, von Hippel-Lindau disease tumor suppressor/Bromodomain-containing protein 4; experiment: as §1, with “3” for “10”, “100 nM” for “3 uM”; type: cell-based
[9] = target: T1, von Hippel-Lindau disease tumor suppressor/Bromodomain-containing protein 4; experiment: (§2) PROTAC activity at BRD4/VHL in human MCF7 cells assessed as induction of BRD4 degradation by measuring residual activity at 10 uM incubated for 24 hrs in presence of VHL based ligand (2S,4R)-1-((S)-2-(2,3-dihydroxybenzamido)-3,3-dimethylbutanoyl)-4-hydroxy-N-(4-(4-methylthiazol-5-yl)benzyl)pyrrolidine-2-carboxamide by Western blot based Combinatorial Ubiquitination Real-time PROteolysis analysis; type: cell-based
[10] = target: T1, von Hippel-Lindau disease tumor suppressor/Bromodomain-containing protein 4; experiment: as §2, with “activity at 100 nM incubated for” for “activity at 10 uM incubated for”, “presence of 1 uM VHL based” for “presence of VHL based”; type: cell-based
MV4-11 = experiment: Antitumor activity against human MV4-11 cells xenografted in nude mouse assessed as reduction in BRD4 level in tumor at 10 mg/kg, ip administered for 4 hrs and measured at 9 to 12 hrs in presence of VHL based ligand (2S,4R)-1-((S)-2-(2,3-dihydroxybenzamido)-3,3-dimethylbutanoyl)-4-hydroxy-N-(4-(4-methylthiazol-5-yl)benzyl)pyrrolidine-2-carboxamide; type: functional, organism-based; conditions: time 9-12 hrs
[11] = target: T1, von Hippel-Lindau disease tumor suppressor/Bromodomain-containing protein 4; experiment: as §2, with “activity at 3 uM incubated” for “activity at 10 uM incubated”, “presence of 1 uM VHL based” for “presence of VHL based”; type: cell-based
[12] = target: T1, von Hippel-Lindau disease tumor suppressor/Bromodomain-containing protein 4; experiment: as §2, with “activity at 1 uM incubated” for “activity at 10 uM incubated”, “presence of 10 uM VHL based” for “presence of VHL based”; type: cell-based
[13] = target: T1, von Hippel-Lindau disease tumor suppressor/Bromodomain-containing protein 4; experiment: as §2, with “activity at 3 uM incubated” for “activity at 10 uM incubated”, “presence of 3 uM VHL based” for “presence of VHL based”; type: cell-based
[14] = target: T1, von Hippel-Lindau disease tumor suppressor/Bromodomain-containing protein 4; experiment: as §1, with “reduction in” for “induction of”, “level” for “degradation by measuring residual activity at 10 uM”, “of” for “of 3 uM”; type: cell-based
[15] = target: T1, von Hippel-Lindau disease tumor suppressor/Bromodomain-containing protein 4; experiment: as §2, with “30 nM” for “10 uM”; type: cell-based
[16] = target: T1, von Hippel-Lindau disease tumor suppressor/Bromodomain-containing protein 4; experiment: PROTAC activity at VHL/BRD4 in HEK293 cells assessed as induction of BRD4 degradation by measuring degradation rate at 1 uM measured every 15 mins for 24 hrs in presence of VHL based ligand (2S,4R)-1-((S)-2-(2,3-dihydroxybenzamido)-3,3-dimethylbutanoyl)-4-hydroxy-N-(4-(4-methylthiazol-5-yl)benzyl)pyrrolidine-2-carboxamide by HiBiT based Combinatorial Ubiquitination Real-time PROteolysis analysis; type: cell-based
[17] = target: T1, von Hippel-Lindau disease tumor suppressor/Bromodomain-containing protein 4; experiment: as §2, with “activity at 3 uM incubated” for “activity at 10 uM incubated”, “presence of 100 nM VHL based” for “presence of VHL based”; type: cell-based
[18] = target: T1, von Hippel-Lindau disease tumor suppressor/Bromodomain-containing protein 4; experiment: as §2, with “activity at 1 uM incubated” for “activity at 10 uM incubated”, “presence of 1 uM VHL based” for “presence of VHL based”; type: cell-based
[19] = target: T1, von Hippel-Lindau disease tumor suppressor/Bromodomain-containing protein 4; experiment: as §2, with “VHL/BRD4” for “BRD4/VHL”, “degradation” for “degradation by measuring residual activity”, “VHL ligand” for “VHL”, “based” for “based ligand”; type: cell-based
[20] = target: T1, von Hippel-Lindau disease tumor suppressor/Bromodomain-containing protein 4; experiment: as §2, with “activity at 1 uM incubated” for “activity at 10 uM incubated”, “presence of 3 uM VHL based” for “presence of VHL based”; type: cell-based
[21] = target: T1, von Hippel-Lindau disease tumor suppressor/Bromodomain-containing protein 4; experiment: as §2, with “presence of 300 nM VHL based” for “presence of VHL based”; type: cell-based

Compound: Cc1ncsc1-c1ccc(CNC(=O)[C@@H]2C[C@@H](O)CN2C(=O)[C@@H](NC(=O)c2cccc(O)c2O)C(C)(C)C)cc1
- Activity [1]: 7%
- Activity [2]: 48%
- Activity [3]: 74%
- Activity [4]: 89%
- Tmax [5]: 19.5 h
- Activity [6]: 100%
- Activity [7]: 21%
- Activity [8]: 51%

Compound: CCNC(=O)C[C@@H]1N=C(c2ccc(Cl)cc2)c2cc(B(O)O)ccc2-n2c(C)nnc21
- Activity [9]: 95%
- Activity [10]: 101%
- Activity (MV4-11): Active
- Activity [11]: 32%
- Activity [12]: 20%
- Activity [13]: 16%
- Activity [14]: inactive
- Activity [15]: 91%
- Activity [16]: 0.548 h⁻¹
- Activity [17]: 51%
- Activity [18]: 35%
- Activity [19]: Active
- Activity [20]: 22%
- Activity [21]: 48%
